Legend:
neuroblastoma cells = settings: cited from earlier work
human erythrocytes = settings: incubation time ~2 min, 37° C., read-out: LC50 (concentration to kill 50% of the cells); cited from earlier work
[1] = system: fibroblasts from FAD patients with pathogenic mutations in PS1 and from sporadic AD (SAD) patients; test: Cinnamycin sensitivity, Live/Dead assay in patient fibroblasts; type: cell-based, human; settings: 1 μM cinnamycin for 10 min at 37° C.; fibroblasts from SAD patients (FIG. 43)
Procedure: FIG. 43. Cinnamycin sensitivity in fibroblasts from FAD patients with pathogenic mutations in PS1 (PS1) and from sporadic AD (SAD) patients. Cells were treated with 1 μM cinnamycin for 10 min at 37° C., and viabitlity was monitored by Live/Dead assay.

PS-mutant MEFs = test: Cinnamycin sensitivity, live/dead assay in MEFs; type: cell-based, mouse; settings: PS-mutant MEFs vs. control MEFs; 1 μM cinnamycin for 10 min at 37° C., live/dead assay (FIG. 41D)
Procedure: FIG. 41. Phospholipid synthesis in MEFs. FIG. 41A: Synthesis of PtdSer and PtdEtn after 3H-Ser labeling for the indicated times (hours) (n=3). FIG. 41B: Pulse-chase. MEFs labeled for 1 h with 3H-Ser; chase with cold Ser (n=3). FIG. 41C: Phospholipid synthesis in crude mitochondria (n=3 or 4) Error bars, SE; p<0.05. FIG. 41D: Cinnamycin sensitivity in MEFs. Left: Live/dead assay (1 μM cinnamycin for 10 min at 37° C.). Right: Cinnamycin-sensitivity assay (10 min at 37° C.).
AD patients have aberrant phospholipid profiles, both in fibroblasts and in brain (Pettegrew et al., (2001) Neurochem. Res. 26, 771-782; Murphy et al., (2006) Brain Res. Bull. 69, 79-85). PtdSer and PtdEtn are exported to the inner leaflet of the plasma membrane (Vance (2008) J. Lipid Res. 49, 1377-1387). […] Both the 3H-Ser and cinnamycin results are relevant to the pathogenesis of AD.
Cinnamycin sensitivity assays. To measure cinnamycin binding (Emoto et al. (1999) Proc. Natl. Acad. Sci. USA 96:12400-12405), cells are incubated with 125I-labeled streptavidin complexed with cinnamycin (Ro 09-0198) peptide complex (1251-SA-Cin; 50,000 cpm/ml; Sigma) for 1 h at 39.5° C. The radioactivities of 125I-SA-Cin bound to the cells is analyzed by bioimage analyzer. […] Viability will be measured by “live/dead” assay (Molecular Probes).

GSK3B = GSK3B (Homo sapiens, UniProt P49841); settings: cited from earlier work
GSK3B, sequence (P49841 whole entry, species assumed): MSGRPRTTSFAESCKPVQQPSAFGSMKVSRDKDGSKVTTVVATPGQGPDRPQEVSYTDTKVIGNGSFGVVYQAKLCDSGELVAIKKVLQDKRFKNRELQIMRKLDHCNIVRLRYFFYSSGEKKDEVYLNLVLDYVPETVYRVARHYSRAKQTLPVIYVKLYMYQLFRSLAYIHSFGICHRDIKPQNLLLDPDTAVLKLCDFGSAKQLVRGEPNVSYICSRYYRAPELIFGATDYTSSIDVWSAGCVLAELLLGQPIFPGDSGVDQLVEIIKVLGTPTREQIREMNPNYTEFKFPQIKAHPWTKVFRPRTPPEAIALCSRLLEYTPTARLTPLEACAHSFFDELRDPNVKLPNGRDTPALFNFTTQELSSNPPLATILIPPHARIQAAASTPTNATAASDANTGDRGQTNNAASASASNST

O=C1NC(=O)C(c2ccccc2[N+](=O)[O-])=C1Nc1ccc(O)c(Cl)c1 [SB415286]
Effect on neurite outgrowth (neuroblastoma cells): inhibit neurite outgrowth

cinnamycin
CC50 (human erythrocytes): ~1000 µM | Cinnamycin sensitivity (viability by Live/Dead assay) [1]: cinnamycin sensitivity in the SAD patients | Sensitivity to cinnamycin vs. controls (PS-mutant MEFs): more sensitive

Cn1sc(=O)n(Cc2ccccc2)c1=O [TDZD-8]
Effect on GSK3B activity (GSK3B): inhibit GSK3B activity

— US20110256565A1, “METHODS FOR DIAGNOSIS AND TREATMENT OF NEURODEGENERATIVE DISEASES OR DISORDERS” (priority 2008, published 2011)
